Data set [1] is described as follows: The drug is tested on Z-024 corresponding to pig gut metagenome with ENA study accession number: PRJEB37062 and ENA sample accession number: ERS12561823 for biotransformation under anaerobic condition. The drug concentrations were measured over 9 timepoints collected between 0 and 24 hours of incubation by liquid-chromatography-coupled mass spectrometry (LC–MS). To be noted: 2 µM.

A short description of data set [2]: The drug is tested on Z-017 corresponding to mouse gut metagenome with ENA study accession number: PRJEB37062 and ENA sample accession number: ERS12561816 for biotransformation under anaerobic condition. The drug concentrations were measured over 9 timepoints collected between 0 and 24 hours of incubation by liquid-chromatography-coupled mass spectrometry (LC–MS). The following applies: 2 µM.

Data set [3] can be described thus: The drug is tested on Z-010 corresponding to metagenome with ENA study accession number: PRJEB37062 and ENA sample accession number: ERS12561810 for biotransformation under anaerobic condition. The drug concentrations were measured over 9 timepoints collected between 0 and 24 hours of incubation by liquid-chromatography-coupled mass spectrometry (LC–MS). To be noted: 2 µM.

Data set [4] can be described thus: The drug is tested on Z-009 corresponding to pig gut metagenome with ENA study accession number: PRJEB37062 and ENA sample accession number: ERS12561809 for biotransformation under anaerobic condition. The drug concentrations were measured over 9 timepoints collected between 0 and 24 hours of incubation by liquid-chromatography-coupled mass spectrometry (LC–MS). The following applies: 2 µM.

Data set [5] in a line: The drug is tested on Z-001 corresponding to mouse gut metagenome with ENA study accession number: PRJEB37062 and ENA sample accession number: ERS12561801 for biotransformation under anaerobic condition. The drug concentrations were measured over 9 timepoints collected between 0 and 24 hours of incubation by liquid-chromatography-coupled mass spectrometry (LC–MS). The following applies: 2 µM.

Data set [6] is described as follows: The drug is tested on WLS-350 corresponding to human gut metagenome with ENA study accession number: PRJEB37062 and ENA sample accession number: ERS12561789 for biotransformation under anaerobic condition. The drug concentrations were measured over 9 timepoints collected between 0 and 24 hours of incubation by liquid-chromatography-coupled mass spectrometry (LC–MS). To be noted: 2 µM.

Data set [7] is described as follows: The drug is tested on WLS-220 corresponding to human gut metagenome with ENA study accession number: PRJEB37062 and ENA sample accession number: ERS12561769 for biotransformation under anaerobic condition. The drug concentrations were measured over 9 timepoints collected between 0 and 24 hours of incubation by liquid-chromatography-coupled mass spectrometry (LC–MS). The following applies: 2 µM.

Data set [8] can be described thus: The drug is tested on WLS-086 corresponding to human gut metagenome with ENA study accession number: PRJEB37062 and ENA sample accession number: ERS12561752 for biotransformation under anaerobic condition. The drug concentrations were measured over 9 timepoints collected between 0 and 24 hours of incubation by liquid-chromatography-coupled mass spectrometry (LC–MS). The following applies: 2 µM.

A short description of data set [9]: The drug is tested on WLS-073 corresponding to human gut metagenome with ENA study accession number: PRJEB37062 and ENA sample accession number: ERS12561749 for biotransformation under anaerobic condition. The drug concentrations were measured over 9 timepoints collected between 0 and 24 hours of incubation by liquid-chromatography-coupled mass spectrometry (LC–MS). The following applies: 2 µM.

Data set [10] in a line: The drug is tested on WLS-052 corresponding to human gut metagenome with ENA study accession number: PRJEB37062 and ENA sample accession number: ERS12561747 for biotransformation under anaerobic condition. The drug concentrations were measured over 9 timepoints collected between 0 and 24 hours of incubation by liquid-chromatography-coupled mass spectrometry (LC–MS). The following applies: 2 µM.

Data set [11] can be described thus: The drug is tested on WLS-038 corresponding to human gut metagenome with ENA study accession number: PRJEB37062 and ENA sample accession number: ERS12561745 for biotransformation under anaerobic condition. The drug concentrations were measured over 9 timepoints collected between 0 and 24 hours of incubation by liquid-chromatography-coupled mass spectrometry (LC–MS). To be noted: 2 µM.

For data set [12] the following is noted: human gut metagenome, 24 h, 2 µM.
The conditions of data set [13]: human gut metagenome, 24 h, 2 µM. This is another data set of the same source.
The conditions of data set [14]: human gut metagenome, 24 h, 2 µM. The source holds these as a separate data set.
The conditions of data set [15]: human gut metagenome, 24 h, 2 µM. This is another data set of the same source.
The conditions of data set [16]: human gut metagenome, 24 h, 2 µM. The source holds these as a separate data set.
The conditions of data set [17]: human gut metagenome, 24 h, 2 µM. This is another data set of the same source.
The conditions of data set [18]: human gut metagenome, 24 h, 2 µM. This is another data set of the same source.
The conditions of data set [19]: human gut metagenome, 24 h, 2 µM. This is another data set of the same source.
For data set [20] the following is noted: human gut metagenome, 24 h, 2 µM. The source holds these as a separate data set.
Further: call rule not given here.

`CC(Oc1c(Cl)cccc1Cl)C1=NCCN1` (stereo not given) [LOFEXIDINE]: the “Bacterial Biotransformation” value in data set [1], in data set [2], in data set [3], in data set [4], in data set [5] and in [6] was “Compound NOT metabolized” in each case. Moreover, the “Bacterial Biotransformation” value in [7] is given as “Compound NOT metabolized”; in [8], “Compound metabolized”; in data set [9] it was “Compound NOT metabolized”; in [10], “Compound NOT metabolized”; in data set [11], “Compound NOT metabolized”; in [12], “Compound NOT metabolized”. For the same compound, the “Bacterial Biotransformation” value in data set [13] was “Compound NOT metabolized”; in data set [14], “Compound NOT metabolized”; in [15] it was “Compound metabolized”; in data set [16], “Compound metabolized”; in data set [17], “Compound metabolized”; in [18], “Compound metabolized”. In addition, the results for the “Bacterial Biotransformation” value in data set [19] and in data set [20] were “Compound metabolized” and “Compound NOT metabolized”, respectively.
Regarding `CN(C)C(=O)C(CCN1CCC(O)(c2ccc(Cl)cc2)CC1)(c1ccccc1)c1ccccc1` [LOPERAMIDE], the “Bacterial Biotransformation” value is given as “Compound metabolized” in data set [1]; “Compound NOT metabolized” in data set [2]; “Compound metabolized” in [3]; “Compound metabolized” in [4]; “Compound metabolized” in data set [5]; “Compound metabolized” in data set [6]. For the same compound, the “Bacterial Biotransformation” value was “Compound metabolized” in data set [7]; “Compound metabolized” in [8]; “Compound NOT metabolized” in data set [9]; “Compound metabolized” in data set [10]; “Compound metabolized” in data set [11]; “Compound metabolized” in data set [12]. Also, the “Bacterial Biotransformation” value in data set [13], in data set [14], in [15], in [16], in [17] and in data set [18] was “Compound metabolized” each time. For the same compound, the “Bacterial Biotransformation” value in data set [19] and in data set [20] was “Compound metabolized” each time.
As to `CCCCc1nc(Cl)c(CO)n1Cc1ccc(-c2ccccc2-c2nn[nH]n2)cc1` [LOSARTAN], the “Bacterial Biotransformation” value in data set [1] is “Compound NOT metabolized”; in data set [2], “Compound NOT metabolized”; in data set [3], “Compound NOT metabolized”; in [4], “Compound NOT metabolized”; in data set [5], “Compound NOT metabolized”; in data set [6], “Compound metabolized”. Further, the “Bacterial Biotransformation” value is reported as “Compound metabolized” in [7]; “Compound metabolized” in data set [8]; “Compound NOT metabolized” in data set [9]; “Compound NOT metabolized” in [10]; “Compound NOT metabolized” in data set [11]; “Compound metabolized” in data set [12]. Also, the “Bacterial Biotransformation” value was “Compound metabolized” in data set [13]; “Compound NOT metabolized” in data set [14]; “Compound metabolized” in [15]; “Compound metabolized” in [16]; “Compound metabolized” in data set [17]; “Compound metabolized” in data set [18]. The “Bacterial Biotransformation” value in data set [19] and in data set [20] was “Compound metabolized” in each case.
On to `COC(=O)Nc1nc2ccc(C(=O)c3ccccc3)cc2[nH]1` [MEBENDAZOLE], for which the “Bacterial Biotransformation” value in data set [1] is recorded as “Compound metabolized”; in data set [2], “Compound NOT metabolized”; in [3], “Compound metabolized”; in data set [4], “Compound metabolized”; in data set [5] it was “Compound metabolized”; in data set [6] it was “Compound NOT metabolized”. Besides, the “Bacterial Biotransformation” value in data set [7] is listed as “Compound metabolized”; in [8], “Compound metabolized”; in data set [9], “Compound metabolized”; in data set [10] it was “Compound metabolized”; in data set [11], “Compound metabolized”; in data set [12] it was “Compound NOT metabolized”. Also, the “Bacterial Biotransformation” value in data set [13], in data set [14], in data set [15], in data set [16], in data set [17] and in data set [18] was “Compound metabolized” throughout. The “Bacterial Biotransformation” value in data set [19] and in data set [20] was “Compound metabolized” throughout.
In the case of `COc1ccccc1OCC(O)COC(N)=O` (stereo not given) [METHOCARBAMOL], the “Bacterial Biotransformation” value in data set [1], in data set [2], in [3], in data set [4], in data set [5] and in data set [6] was “Compound NOT metabolized” throughout. In addition, the “Bacterial Biotransformation” value in [7], in data set [8], in data set [9], in data set [10], in data set [11] and in data set [12] was “Compound NOT metabolized” each time. Besides, the “Bacterial Biotransformation” value in data set [13], in data set [14], in [15], in data set [16], in data set [17] and in [18] was “Compound NOT metabolized” throughout. The “Bacterial Biotransformation” value in [19] and in data set [20] was “Compound NOT metabolized” throughout.
Consider `CC[C@@H](CO)NC(=O)[C@@H]1C=C2c3cccc4c3c(cn4C)C[C@H]2N(C)C1.O=C(O)/C=C\C(=O)O` [METHYSERGIDE MALEATE], for which the “Bacterial Biotransformation” value in data set [1], in data set [2], in data set [3], in [4], in [5] and in [6] was “Compound NOT metabolized” in each case. For the same compound, the “Bacterial Biotransformation” value in [7] is reported as “Compound NOT metabolized”; in data set [8] it was “Compound metabolized”; in data set [9], “Compound NOT metabolized”; in [10], “Compound NOT metabolized”; in data set [11], “Compound NOT metabolized”; in [12] it was “Compound NOT metabolized”. Further, the “Bacterial Biotransformation” value in data set [13] was “Compound NOT metabolized”; in [14] it was “Compound NOT metabolized”; in [15], “Compound NOT metabolized”; in data set [16], “Compound NOT metabolized”; in data set [17], “Compound NOT metabolized”; in data set [18] it was “Compound metabolized”. The “Bacterial Biotransformation” value in data set [19] and in [20] was “Compound NOT metabolized” in each case.

For the origin of these results see ChEMBL document CHEMBL5724914, “Linking interpersonal differences in gut microbiota composition and drug biotransformation activity” (2024).
